# Assay results from BindingDB's records for doi:10.1016/S0960-894X(01)80179-7 (1994).
# Target: Kappa-type opioid receptor (Cavia porcellus, UniProt P41144)
# Assay: ChEBML_92409
# Source text: Affinity at K opioid receptor on membranes prepared from guinea pig cerebellum by [3H]- 69593 displacement.
# Sequence of Kappa-type opioid receptor (P41144 whole entry): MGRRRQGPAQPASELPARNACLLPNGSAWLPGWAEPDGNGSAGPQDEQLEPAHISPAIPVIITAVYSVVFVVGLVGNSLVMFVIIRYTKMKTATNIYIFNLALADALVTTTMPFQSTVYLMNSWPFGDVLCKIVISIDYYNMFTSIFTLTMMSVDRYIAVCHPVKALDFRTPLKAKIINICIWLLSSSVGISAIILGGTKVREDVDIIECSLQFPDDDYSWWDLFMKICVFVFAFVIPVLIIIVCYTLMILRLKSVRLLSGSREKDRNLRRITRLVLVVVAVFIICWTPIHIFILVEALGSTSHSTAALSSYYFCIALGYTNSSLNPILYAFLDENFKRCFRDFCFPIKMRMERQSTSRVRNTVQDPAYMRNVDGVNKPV
row,Compound,Ki [nM]
1,CN(C(=O)C1c2ccccc2CCc2ccccc21)[C@H](CN1CC[C@H](O)C1)c1ccccc1,20
2,Cc1ccc(C(C(=O)N(C)[C@H](CN2CC[C@H](O)C2)c2ccccc2)c2ccc(C)cc2)cc1,20
3,CN(C(=O)C(c1ccccc1)c1ccccc1)[C@H](CN1CC[C@H](O)C1)c1cccc([N+](=O)[O-])c1,20
